Drawing on PubChem BioAssay (NCI), this text covers GI50 and TGI for 8 compounds.

Some test systems named below: A498 renal; UACC-62 melanoma; SNB-19 CNS; SK-MEL-5 melanoma; SN12C renal; RPMI-8226 leukemia; K-562 leukemia; MALME-3M melanoma; HCT-15 colon; OVCAR-5 ovarian.
Common to all, as to experiment: NCI anticancer screen, dose series, 48 h

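Five concentrations, 48 hours, 96-well plates. GI50 = concentration required for 50% inhibition of growth. TGI is the concentration that stops growth completely.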

Take `COc1cc(/C=C/c2cc(C(F)(F)F)[nH]c(=O)n2)ccc1OCc1ccccc1F`: the GI50 with A498 renal was 1.73 µM; with UACC-62 melanoma, 7.57 µM; with SNB-19 CNS it was 11.5 µM; with SK-MEL-5 melanoma, 6.97 µM; in the test with SN12C renal, 7.04 µM; in the test with RPMI-8226 leukemia, 3.85 µM. The GI50 with K-562 leukemia is 7.55 µM; in the test on MALME-3M melanoma it was 13.9 µM; in the test on HCT-15 colon it was 5.22 µM; with OVCAR-5 ovarian it was 16.5 µM. The TGI was 8.6 µM with A498 renal; 21.6 µM with UACC-62 melanoma; 30.1 µM in the test with SNB-19 CNS; 20.2 µM in the test on SK-MEL-5 melanoma; 32.6 µM in the test with SN12C renal; 27.1 µM in the test with RPMI-8226 leukemia. Moreover, the TGI stood at 98.8 µM with K-562 leukemia, 43.1 µM in the test on MALME-3M melanoma, 28.3 µM in the test with HCT-15 colon and 30.9 µM in the test with OVCAR-5 ovarian.
Regarding `CCOc1ccc(/C=C/C(=O)c2ccccc2)cc1`, the GI50 is 16.2 µM with A498 renal; 17 µM in the test on UACC-62 melanoma; 16.8 µM in the test on SNB-19 CNS; 17.1 µM with SK-MEL-5 melanoma; 18.3 µM with SN12C renal; 3.95 µM in the test on RPMI-8226 leukemia. Also, the GI50 in the test with K-562 leukemia was 8.05 µM; in the test on MALME-3M melanoma it was 17.9 µM; with HCT-15 colon, 14.6 µM; with OVCAR-5 ovarian, 19.3 µM. Also, the TGI with A498 renal came to 33.2 µM; with UACC-62 melanoma it was 36.5 µM; in the test with SNB-19 CNS, 34 µM; in the test on SK-MEL-5 melanoma, 31.2 µM; in the test on SN12C renal it was 37 µM; in the test with RPMI-8226 leukemia, 20.5 µM. Besides, the TGI stood at 80.8 µM in the test on K-562 leukemia, 35.2 µM with MALME-3M melanoma, 48 µM in the test with HCT-15 colon and 47.1 µM in the test with OVCAR-5 ovarian.
For the compound `O=C(Nc1ccccc1C(F)(F)F)c1cccc(NC2=C(Cl)C(=O)N(Cc3ccccc3)C2=O)c1`, the GI50 is 11.3 µM in the test on A498 renal; 9.46 µM in the test with UACC-62 melanoma; 34 µM with SNB-19 CNS; 7.49 µM with SN12C renal; 13.1 µM with RPMI-8226 leukemia; 3.55 µM with K-562 leukemia. Moreover, the GI50 in the test with MALME-3M melanoma is 42.6 µM; in the test on HCT-15 colon, 3.8 µM; in the test on OVCAR-5 ovarian, 20 µM. For the same compound, the TGI in the test on A498 renal was 37 µM; with UACC-62 melanoma, 52.7 µM; in the test with SNB-19 CNS, > 100 µM; with SK-MEL-5 melanoma, 3.04 µM; in the test on SN12C renal, > 57.4 µM; in the test on RPMI-8226 leukemia it was > 100 µM. In addition, the TGI is > 100 µM in the test on K-562 leukemia, > 100 µM with MALME-3M melanoma, > 24.5 µM in the test with HCT-15 colon and > 100 µM in the test on OVCAR-5 ovarian.
As for `COc1ccc(-c2c(C3=NCCN3)nnn2-c2ccccc2)cc1`, the TGI in the test on A498 renal, with UACC-62 melanoma, with SNB-19 CNS, in the test on SK-MEL-5 melanoma, with SN12C renal and in the test with RPMI-8226 leukemia was > 100 µM in each case. The TGI with K-562 leukemia, in the test with MALME-3M melanoma, in the test with HCT-15 colon and with OVCAR-5 ovarian was > 100 µM in each case.
For the compound `COc1cc(OC)c(/C=C/c2ccc3ccccc3[n+]2C)c(OC)c1`, the GI50 in the test with A498 renal was 0.535 µM; with UACC-62 melanoma, 1.13 µM; in the test with SNB-19 CNS it was 0.375 µM; in the test with SK-MEL-5 melanoma, 0.567 µM; in the test on SN12C renal, 0.36 µM; in the test on RPMI-8226 leukemia it was 0.281 µM. For the same compound, the GI50 in the test on K-562 leukemia is 0.271 µM; with MALME-3M melanoma, 0.691 µM; in the test on HCT-15 colon, 12.8 µM; in the test on OVCAR-5 ovarian, 3.09 µM. In addition, the TGI worked out at 5.42 µM in the test on A498 renal; 3.08 µM in the test on UACC-62 melanoma; 14.8 µM in the test on SNB-19 CNS; 1.95 µM in the test on SK-MEL-5 melanoma; 16.9 µM with SN12C renal; 2.24 µM in the test with RPMI-8226 leukemia. Also, the TGI was 20.9 µM in the test with K-562 leukemia, 5.38 µM in the test with MALME-3M melanoma, > 100 µM in the test on HCT-15 colon and 25.2 µM in the test with OVCAR-5 ovarian.
Turning to `C=CC(=O)N1CCCC(n2nc(-c3ccc(Oc4ccccc4)cc3)c3c(N)ncnc32)C1` (centres undefined), the GI50 was 0.124 µM in the test on A498 renal; 2.36 µM in the test on UACC-62 melanoma; 9.14 µM with SNB-19 CNS; 6.55 µM in the test with SK-MEL-5 melanoma; 2.3 µM in the test on SN12C renal; 6.57 µM in the test with RPMI-8226 leukemia. In addition, the GI50 was 4.13 µM in the test with K-562 leukemia, 12.4 µM in the test on MALME-3M melanoma, 12.6 µM in the test with HCT-15 colon and 13.1 µM in the test with OVCAR-5 ovarian. The TGI in the test with A498 renal amounted to 2.08 µM; in the test on UACC-62 melanoma, 14.6 µM; with SNB-19 CNS, 22.3 µM; in the test with SK-MEL-5 melanoma, 19.3 µM; with SN12C renal, 16.1 µM; with RPMI-8226 leukemia, 31.2 µM. The TGI with K-562 leukemia is 24.4 µM; in the test with MALME-3M melanoma it was 29.3 µM; in the test with HCT-15 colon, 28.9 µM; in the test with OVCAR-5 ovarian it was 27.6 µM.
Consider `CC1=CSC2=NC(c3ccc(Cl)c(Cl)c3)=CC(c3ccc(Cl)cc3)N12` (centres undefined), for which the GI50 in the test with A498 renal, in the test on UACC-62 melanoma, in the test on SNB-19 CNS, with SK-MEL-5 melanoma, in the test with SN12C renal and in the test on RPMI-8226 leukemia was > 100 µM throughout. The GI50 in the test with K-562 leukemia, in the test with MALME-3M melanoma, with HCT-15 colon and with OVCAR-5 ovarian was > 100 µM in each case. The TGI with A498 renal, in the test with UACC-62 melanoma, in the test with SNB-19 CNS, in the test on SK-MEL-5 melanoma, in the test on SN12C renal and in the test with RPMI-8226 leukemia was > 100 µM throughout. The TGI in the test on K-562 leukemia, in the test with MALME-3M melanoma, in the test on HCT-15 colon and with OVCAR-5 ovarian was > 100 µM throughout.
In the case of `COc1cc([C@H](C)c2ccc3ccccc3c2)cc(OC)c1OC`, the GI50 was 0.255 µM in the test with A498 renal; 0.499 µM with UACC-62 melanoma; 0.601 µM in the test on SNB-19 CNS; 0.26 µM with SK-MEL-5 melanoma; 1.08 µM with SN12C renal; 0.325 µM with RPMI-8226 leukemia. The GI50 in the test on K-562 leukemia was 0.0411 µM; in the test with MALME-3M melanoma, 1.36 µM; in the test with HCT-15 colon, 0.311 µM; in the test on OVCAR-5 ovarian, 0.997 µM. In addition, the TGI in the test with A498 renal is 7.34 µM; in the test on UACC-62 melanoma, > 100 µM; with SNB-19 CNS it was > 100 µM; in the test with SK-MEL-5 melanoma, 11.1 µM; in the test with SN12C renal, > 100 µM; in the test with RPMI-8226 leukemia, 10.9 µM. In addition, the TGI with K-562 leukemia, in the test on MALME-3M melanoma, with HCT-15 colon and with OVCAR-5 ovarian was > 100 µM each time.
